Reference: US20260306460A1, “COMPOSITION FOR REMOVING AND INHIBITING SENESCENT CELLS, AND USES THEREOF” (LIFECEUTIX CO., LTD., priority 2023, published 2026)

Key:
senescent cells = assay: Viability of senescent cells (CellTiter-Glo), Example 17, Table 13; conditions: Homo sapiens, read-out: Survival (%)
Procedure: Cells induced to undergo senescence by doxorubicin treatment were treated with test compound at designated concentrations and measured using the CellTiter-Glo Luminescent Cell Viability Assay (Promega).

senescent A549 cells = assay: Viability of senescent A549 cells (CellTiter-Glo), Example 18, Table 15; conditions: Homo sapiens, A549, read-out: Survival (%)
Procedure: Senescence-induced cancer cells treated with doxorubicin were treated with the test compound at designated concentrations, and cell viability was measured using the CellTiter-Glo Luminescent Cell Viability Assay (Promega).

Compound | viability at 1.1 µM (senescent cells) [%] | viability at 10 µM (senescent cells) [%] | viability at 30 µM (senescent cells) [%] | viability at 1.1 µM (senescent A549 cells) [%] | viability at 10 µM (senescent A549 cells) [%] | viability at 30 µM (senescent A549 cells) [%] | viability at 90 µM (senescent A549 cells) [%] | viability at 90 µM (senescent cells) [%]
CCOc1cc(CC(=O)N[C@@H](CC(C)C)c2ccccc2N2CCCCC2)ccc1C(=O)O [LX-9302, Repaglinide] | 99.7 | 73.5 | 34.3 | 94.1 | 82.3 | 68.5 | 11.8 | 
C=CC[C@@H]1/C=C(\C)C[C@H](C)C[C@H](OC)[C@H]2O[C@@](O)(C(=O)C(=O)N3CCCC[C@H]3C(=O)O[C@H](/C(C)=C/[C@@H]3CC[C@@H](O)[C@H](OC)C3)[C@H](C)[C@@H](O)CC1=O)[C@H](C)C[C@@H]2OC [LX-9314, Tacrolimus] | 84.7 | 69.2 | 35.3 | 92.9 | 57.1 | 14.7 |  | 
O=C1[C@H](CC[C@H](O)c2ccc(F)cc2)[C@@H](c2ccc(O)cc2)N1c1ccc(F)cc1 [LX-9321, Ezetimibe] | 98.3 | 86.4 | 79.6 | 108 | 91.4 | 65.8 | 4.1 | 19.4
COc1ccc(Cl)cc1C(=O)NCCc1ccc(S(=O)(=O)NC(=O)NC2CCCCC2)cc1 [LX-9335, glyburide] | 85.2 | 56.3 | 12.2 | 90.2 | 60.8 | 13.8 |  | 
CN(C)C[C@@H]1CCn2cc(c3ccccc32)C2=C(C(=O)NC2=O)c2cn(c3ccccc23)CCO1 [LX-9339, Ruboxistaurin] | 55.6 |  |  | 49.2 |  |  |  | 
CC(=O)NCCOC(=O)[C@H](Oc1cccc(C(F)(F)F)c1)c1ccc(Cl)cc1 [LX-9409, Arhalofenate] | 80.5 | 65.7 | 15.3 | 72.7 | 51.9 | 8.7 |  | 
CCc1ccc(CCOc2ccc(CC3SC(=O)NC3=O)cc2)nc1 (stereo not drawn) [LX-9422, Pioglitazone] | 94.7 | 56.2 | 6.7 | 104 | 62.8 | 15.8 |  | 
CN1CCCC1 [LX-9425, N-methyl pyrrolidine] | 102 | 97.5 | 66.8 | 97.5 | 100 | 68.2 |  | 
COc1ccccc1OCC(O)CN1CCN(CC(=O)Nc2c(C)cccc2C)CC1 (stereo not drawn) [LX-9565, Ranolazine] | 78.9 | 52.3 | 6.1 | 97 | 67.3 | 34.1 | 3.6 | 
CC(C)(CCCCCC(O)CCCCCC(C)(C)C(=O)O)C(=O)O [LX-9602, Bempedoic acid] | 113 | 102 | 92.2 | 101 | 96.4 | 75.4 | 3.8 | 11.1
CCCCC[C@H](O)CC[C@@H]1[C@H]2Cc3cccc(OCC(=O)O)c3C[C@H]2C[C@H]1O [LX-9713, Treprostinil] | 1.8 |  |  | 28.4 |  |  |  | 
COc1c(C)c2c(c(O)c1C/C=C(\C)CCC(=O)O)C(=O)OC2 [LX-9725, Mycophenolic acid] | 49.3 |  |  | 62.4 |  |  |  | 
CC[C@H]1[C@@H](O)[C@@H]2[C@H](CC[C@]3(C)[C@@H]([C@H](C)CCC(=O)O)CC[C@@H]23)[C@@]2(C)CC[C@@H](O)C[C@@H]12 [LX-9732, Obeticholic Acid] | 95.7 | 46.4 | 3.8 | 97.5 | 51.3 | 7.9 |  | 
